Results from the NIST ThermoML archive (doi:10.1016/j.jct.2012.12.001).

Assay: heat capacity at constant pressure per volume; xn = mol fraction of the nth substance listed
Settings: 101 kPa, Liquid, DSC, x2 = 0.713

CCCCCCCCCCCCCCCCCC [octadecane] + N#Cc1ccccc1
Settings | heat capacity [J/K/m3]
311.31 K | 1755300
311.34 K | 1755200
311.37 K | 1751900
311.39 K | 1755200
311.42 K | 1754200
311.45 K | 1754700
311.48 K | 1751100
311.51 K | 1751000
311.54 K | 1753000
311.56 K | 1754300
311.59 K | 1755100
311.62 K | 1752800
311.65 K | 1748600
311.68 K | 1753400
311.7 K | 1751800
311.73 K | 1751000
311.76 K | 1752000
311.79 K | 1748500
311.82 K | 1747200
311.85 K | 1749600
311.87 K | 1749800
311.9 K | 1751600
311.93 K | 1750300
311.96 K | 1749700
311.99 K | 1747400
312.01 K | 1746900
312.04 K | 1752800
312.07 K | 1750900
312.1 K | 1745700
312.13 K | 1749200
312.15 K | 1747500
312.18 K | 1746000
312.21 K | 1746700
312.24 K | 1746500
312.27 K | 1747800
312.3 K | 1746300
312.32 K | 1744700
312.35 K | 1746400
312.38 K | 1744700
312.41 K | 1744900
312.44 K | 1743500
312.46 K | 1743700
312.49 K | 1747600
312.52 K | 1745100
312.55 K | 1746800
312.58 K | 1745400
312.6 K | 1744400
312.63 K | 1744300
312.66 K | 1743700
312.69 K | 1745000
312.72 K | 1743800
312.75 K | 1744000
312.77 K | 1743700
312.8 K | 1741400
312.83 K | 1742500
312.86 K | 1743700
312.88 K | 1745000
312.91 K | 1746300
312.94 K | 1744500
312.97 K | 1744100
313 K | 1743500
313.03 K | 1742300
313.05 K | 1742800
313.08 K | 1741900
313.11 K | 1742400
313.14 K | 1742800
313.17 K | 1739000
313.19 K | 1743700
313.22 K | 1740000
313.25 K | 1739100
313.28 K | 1738800
313.31 K | 1739500
313.33 K | 1740400
313.36 K | 1741400
313.39 K | 1740700
313.42 K | 1739700
313.45 K | 1740900
313.48 K | 1742600
313.5 K | 1740800
313.53 K | 1739000
313.56 K | 1737700
313.59 K | 1739600
313.62 K | 1740700
313.64 K | 1741100
313.67 K | 1740500
313.7 K | 1740400
313.73 K | 1741200
313.76 K | 1739900
313.79 K | 1739100
313.81 K | 1739300
313.84 K | 1739200
313.87 K | 1738900
313.9 K | 1738100
313.93 K | 1738700
313.95 K | 1735100
313.98 K | 1738800
314.01 K | 1737700
314.04 K | 1736700
314.07 K | 1735400
314.09 K | 1737000
314.12 K | 1736800
314.15 K | 1737300
314.18 K | 1733500
314.21 K | 1737800
314.24 K | 1735200
314.26 K | 1736900
314.29 K | 1735200
314.32 K | 1736400
314.35 K | 1737400
314.38 K | 1736600
314.4 K | 1738700
314.43 K | 1736600
314.46 K | 1737000
314.49 K | 1735500
314.52 K | 1735300
314.54 K | 1735400
314.57 K | 1735300
314.6 K | 1735500
314.63 K | 1734500
314.66 K | 1737100
314.68 K | 1735100
314.71 K | 1733900
314.74 K | 1734500
314.77 K | 1733900
314.8 K | 1737400
314.82 K | 1736200
314.85 K | 1735600
314.88 K | 1735100
314.91 K | 1734300
314.94 K | 1734100
314.96 K | 1733300
314.99 K | 1735100
315.02 K | 1735000
315.05 K | 1735200
315.08 K | 1732600
315.2 K | 1734500
315.38 K | 1734200
315.57 K | 1733800
315.76 K | 1733400
315.95 K | 1733200
316.14 K | 1733100
316.33 K | 1732700
316.52 K | 1732000
316.71 K | 1731600
316.9 K | 1731300
317.09 K | 1731000
317.28 K | 1730800
317.47 K | 1730300
317.66 K | 1730100
317.85 K | 1730000
318.03 K | 1729900
318.22 K | 1729800
318.41 K | 1729400
318.6 K | 1729300
318.79 K | 1729200
318.98 K | 1729000
319.17 K | 1728800
319.36 K | 1728600
319.55 K | 1728600
319.74 K | 1728300
319.93 K | 1728200
320.12 K | 1728000
320.31 K | 1728000
320.5 K | 1728000
320.68 K | 1728000
320.87 K | 1727900
321.06 K | 1727600
321.25 K | 1727500
321.44 K | 1727400
321.63 K | 1727200
321.82 K | 1727200
322.01 K | 1727300
322.2 K | 1727200
322.39 K | 1726900
322.58 K | 1726600
322.76 K | 1726900
322.95 K | 1726900
323.14 K | 1726800
323.33 K | 1726700
323.52 K | 1726500
323.71 K | 1726800
323.9 K | 1726900
324.09 K | 1726700
324.28 K | 1726700
324.47 K | 1726600
324.66 K | 1726600
324.85 K | 1726700
325.04 K | 1726500
325.23 K | 1726500
325.41 K | 1726500
325.6 K | 1726500
325.79 K | 1726500
325.98 K | 1726300
326.17 K | 1726400
326.36 K | 1726600
326.55 K | 1726500
326.74 K | 1726700
326.93 K | 1726700
327.12 K | 1726400
327.31 K | 1726600
327.5 K | 1726500
327.69 K | 1726700
327.87 K | 1726500
328.06 K | 1726500
328.25 K | 1726700
328.44 K | 1726900
328.63 K | 1726600
328.82 K | 1726700
329.01 K | 1726800
329.2 K | 1726900
329.39 K | 1726800
329.58 K | 1726700
329.77 K | 1726700
329.95 K | 1726800
330.14 K | 1726900
330.33 K | 1726900
330.52 K | 1726800
330.71 K | 1727000
330.9 K | 1727000
331.09 K | 1727200
331.28 K | 1727300
331.47 K | 1727100
331.66 K | 1727200
331.85 K | 1727200
332.04 K | 1727200
332.23 K | 1727200
332.42 K | 1727100
332.61 K | 1727100
332.79 K | 1727400
332.98 K | 1727300
333.17 K | 1727400
333.36 K | 1727300
333.55 K | 1727600
333.74 K | 1728000
333.93 K | 1727700
334.12 K | 1727800
334.31 K | 1727700
334.5 K | 1727900
334.69 K | 1728100
334.88 K | 1728200
335.06 K | 1728100
335.25 K | 1728100
335.44 K | 1728300
335.63 K | 1728300
335.82 K | 1728600
336.01 K | 1729000
336.2 K | 1729000
336.39 K | 1728800
336.58 K | 1729000
336.77 K | 1729100
336.96 K | 1729000
337.15 K | 1729000
337.34 K | 1729200
337.52 K | 1729100
337.71 K | 1729200
337.9 K | 1729200
338.09 K | 1729300
338.28 K | 1729700
338.47 K | 1729900
338.66 K | 1729900
338.85 K | 1729600
339.04 K | 1730200
339.23 K | 1730200
339.42 K | 1730600
339.61 K | 1730700
339.8 K | 1730900
339.99 K | 1730600
340.17 K | 1730800
340.36 K | 1730700
340.55 K | 1730900
340.74 K | 1731100
340.93 K | 1730900
341.12 K | 1730900
341.31 K | 1731200
341.5 K | 1731200
